For seven compounds, T/C results are on record in PubChem BioAssay AID248 (DTP/NCI, 2004).

Inconclusive results and toxic doses are left out.

The subject of the assay is L1210 leukemia ip in BDF1 mice, survival T/C. Nature of the assay: NCI In Vivo Anticancer Drug Screen. Data for tumor model L1210 Leukemia (intraperitoneal) in B6D2F1 (BDF1) mice. The settings on record: higher = longer survival. In a few lines: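 Each compound was tested against a transplantable tumor grown in mice. The endpoint was survival, with treated animals benchmarked against vehicle controls as a simple ratio.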

[1] abbreviates: endpoint: mean survival time, dose: 100.0 mg/kg/injection, schedule: Q04DX002 (ip), vehicle: Klucel (hydroxypropylcellulose) (HPC).
The mark [2] stands for this setting: endpoint: mean survival time, dose: 200.0 mg/kg/injection, schedule: Q04DX002 (ip), vehicle: Klucel (hydroxypropylcellulose) (HPC).

Take `CC1CC(C)(O)CC(C(O)CC2CC(=O)NC(=O)C2)C1=O` (stereo unspecified): the T/C by setting is: (endpoint: mean survival time, dose: 0.02 mg/kg/injection, schedule: Q03HX024 (ip), vehicle: saline) 109 % of control; (endpoint: mean survival time, dose: 0.03 mg/kg/injection, schedule: Q01DX Z (ip), vehicle: other) 118 % of control; (endpoint: mean survival time, dose: 0.04 mg/kg/injection, schedule: Q03HX016 (ip), vehicle: saline) 111 % of control; (endpoint: mean survival time, dose: 0.04 mg/kg/injection, schedule: Q03HX024 (ip), vehicle: saline) 117 % of control; (endpoint: mean survival time, dose: 0.08 mg/kg/injection, schedule: Q01DX005 (ip), vehicle: saline) 120 % of control; (endpoint: mean survival time, dose: 0.08 mg/kg/injection, schedule: Q01DX005 (iv), vehicle: saline) 108 % of control. Besides, the T/C was 155 % of control (endpoint: mean survival time, dose: 0.08 mg/kg/injection, schedule: Q01DX009 (ip), vehicle: saline); 123 % of control (endpoint: mean survival time, dose: 0.08 mg/kg/injection, schedule: Q01DX Z (ip), vehicle: methylcellulose (MC)); 119 % of control (endpoint: mean survival time, dose: 0.08 mg/kg/injection, schedule: Q01DX Z (ip), vehicle: other); 117 % of control (endpoint: mean survival time, dose: 0.08 mg/kg/injection, schedule: Q03HX016 (ip), vehicle: saline); 115 % of control (endpoint: mean survival time, dose: 0.15 mg/kg/injection, schedule: Q01DX005 (iv), vehicle: saline); 87 % of control (endpoint: mean survival time, dose: 0.15 mg/kg/injection, schedule: Q01DX009 (ip), vehicle: saline). Besides, the T/C (endpoint: mean survival time, dose: 0.15 mg/kg/injection, schedule: Q01DX009 (oral), vehicle: saline) was 109 % of control; the T/C (endpoint: mean survival time, dose: 0.15 mg/kg/injection, schedule: Q03HX024 (ip), vehicle: saline) was 155 % of control; the T/C (endpoint: mean survival time, dose: 0.3 mg/kg/injection, schedule: Q01DX001 (iv), vehicle: saline) is 105 % of control; the T/C (endpoint: mean survival time, dose: 0.3 mg/kg/injection, schedule: Q01DX009 (oral), vehicle: saline) was 117 % of control; the T/C (endpoint: mean survival time, dose: 0.3 mg/kg/injection, schedule: Q01DX Z (ip), vehicle: methylcellulose (MC)) is 155 % of control; the T/C (endpoint: mean survival time, dose: 0.3 mg/kg/injection, schedule: Q01DX Z (ip), vehicle: other) is 157 % of control. Also, the T/C runs as follows: (endpoint: mean survival time, dose: 0.3 mg/kg/injection, schedule: Q03HX016 (ip), vehicle: saline) 161 % of control; (endpoint: mean survival time, dose: 0.3 mg/kg/injection, schedule: Q03HX024 (ip), vehicle: saline) 157 % of control; (endpoint: mean survival time, dose: 0.3 mg/kg/injection, schedule: Q11DX001 (ip), vehicle: saline) 105 % of control; (endpoint: mean survival time, dose: 0.3 mg/kg/injection, schedule: Q14DX008 (ip), vehicle: saline) 112 % of control; (endpoint: mean survival time, dose: 0.6 mg/kg/injection, schedule: Q01DX001 (iv), vehicle: saline) 110 % of control; (endpoint: mean survival time, dose: 0.6 mg/kg/injection, schedule: Q01DX005 (iv), vehicle: saline) 112 % of control. Further, the T/C is 95 % of control (endpoint: mean survival time, dose: 0.6 mg/kg/injection, schedule: Q01DX009 (oral), vehicle: saline); 92 % of control (endpoint: mean survival time, dose: 0.6 mg/kg/injection, schedule: Q01DX Z (ip), vehicle: methylcellulose (MC)); 124 % of control (endpoint: mean survival time, dose: 0.6 mg/kg/injection, schedule: Q08DX002 (ip), vehicle: saline); 114 % of control (endpoint: mean survival time, dose: 0.6 mg/kg/injection, schedule: Q11DX001 (ip), vehicle: saline); 116 % of control (endpoint: mean survival time, dose: 0.6 mg/kg/injection, schedule: Q14DX008 (ip), vehicle: saline); 95 % of control (endpoint: mean survival time, dose: 0.9 mg/kg/injection, schedule: Q01DX Z (ip), vehicle: other). The T/C is, setting by setting: (endpoint: mean survival time, dose: 1.2 mg/kg/injection, schedule: Q01DX001 (iv), vehicle: saline) 121 % of control; (endpoint: mean survival time, dose: 1.2 mg/kg/injection, schedule: Q01DX005 (ip), vehicle: saline) 88 % of control; (endpoint: mean survival time, dose: 1.2 mg/kg/injection, schedule: Q11DX001 (ip), vehicle: saline) 113 % of control; (endpoint: mean survival time, dose: 1.2 mg/kg/injection, schedule: Q11DX001 (oral), vehicle: saline) 109 % of control; (endpoint: mean survival time, dose: 1.2 mg/kg/injection, schedule: Q14DX008 (ip), vehicle: saline) 113 % of control; (endpoint: mean survival time, dose: 1.35 mg/kg/injection, schedule: Q01DX Z (ip), vehicle: other) 87 % of control. Besides, the T/C reads like this: (endpoint: mean survival time, dose: 2.4 mg/kg/injection, schedule: Q01DX001 (iv), vehicle: saline) 118 % of control; (endpoint: mean survival time, dose: 2.4 mg/kg/injection, schedule: Q04DX003 (ip), vehicle: saline) 154 % of control; (endpoint: mean survival time, dose: 2.4 mg/kg/injection, schedule: Q11DX001 (ip), vehicle: saline) 112 % of control; (endpoint: mean survival time, dose: 2.4 mg/kg/injection, schedule: Q11DX001 (oral), vehicle: saline) 101 % of control; (endpoint: mean survival time, dose: 2.4 mg/kg/injection, schedule: Q14DX008 (ip), vehicle: saline) 108 % of control; (endpoint: mean survival time, dose: 4.8 mg/kg/injection, schedule: Q11DX001 (ip), vehicle: saline) 108 % of control. Further, the T/C was 100 % of control (endpoint: mean survival time, dose: 10.0 micrograms/kg/injection, schedule: Q01DX Z (ip), vehicle: other); 102 % of control (endpoint: mean survival time, dose: 20.0 micrograms/kg/injection, schedule: Q01DX Z (ip), vehicle: other); 110 % of control (endpoint: mean survival time, dose: 40.0 micrograms/kg/injection, schedule: Q01DX Z (ip), vehicle: other); 115 % of control (endpoint: mean survival time, dose: 80.0 micrograms/kg/injection, schedule: Q01DX Z (ip), vehicle: other); 154 % of control (endpoint: median survival time, dose: 2.0 mg/kg/injection, schedule: Q04DX003 (ip), vehicle: saline).
Consider `CCC(/C=N\NC(=O)CCCC(=O)N/N=C/C(CC)CC)CC`, for which the T/C is 90 % of control (endpoint: mean survival time, dose: 50.0 mg/kg/injection, schedule: Q01DX001 (ip), vehicle: carboxymethylcellulose (CMC)); 90 % of control (endpoint: mean survival time, dose: 100.0 mg/kg/injection, schedule: Q01DX001 (ip), vehicle: carboxymethylcellulose (CMC)); 90 % of control (endpoint: mean survival time, dose: 400.0 mg/kg/injection, schedule: Q01DX001 (ip), vehicle: carboxymethylcellulose (CMC)).
With `COCCCNC(=S)C(=S)NCCCOC`, the T/C under setting [1] was 97 % of control and the T/C under setting [2] is 107 % of control.
As for `CC(=O)CC(=O)Nc1ccccn1`, the T/C is 97 % of control (endpoint: mean survival time, dose: 100.0 mg/kg/injection, schedule: Q04DX003 (ip), vehicle: Klucel (hydroxypropylcellulose) (HPC)); 101 % of control (endpoint: mean survival time, dose: 200.0 mg/kg/injection, schedule: Q04DX003 (ip), vehicle: Klucel (hydroxypropylcellulose) (HPC)); 98 % of control (endpoint: mean survival time, dose: 400.0 mg/kg/injection, schedule: Q04DX003 (ip), vehicle: Klucel (hydroxypropylcellulose) (HPC)).
For `Fc1ccc(Cc2nnc(Cc3ccc(F)cc3)nn2)cc1`, the T/C is 105 % of control under setting [1] and 102 % of control under setting [2].
Turning to `CCOC(=O)C(C)(C(=O)OCC)c1cccc2ccccc12`, the T/C (endpoint: mean survival time, dose: 100.0 mg/kg/injection, schedule: Q01DX001 (ip), vehicle: other) was 98 % of control; the T/C (endpoint: mean survival time, dose: 100.0 mg/kg/injection, schedule: Q04DX003 (ip), vehicle: other) was 93 % of control; the T/C (endpoint: mean survival time, dose: 200.0 mg/kg/injection, schedule: Q01DX001 (ip), vehicle: other) is 102 % of control; the T/C (endpoint: mean survival time, dose: 200.0 mg/kg/injection, schedule: Q04DX003 (ip), vehicle: other) is 100 % of control; the T/C (endpoint: mean survival time, dose: 400.0 mg/kg/injection, schedule: Q01DX001 (ip), vehicle: other) was 96 % of control; the T/C (endpoint: mean survival time, dose: 400.0 mg/kg/injection, schedule: Q04DX003 (ip), vehicle: other) is 94 % of control.
With `CC(C)C(N)C(=O)NCCCCC(N)C(=O)O` (stereo unspecified), the T/C reads like this: (endpoint: mean survival time, dose: 25.0 mg/kg/injection, schedule: Q04DX002 (ip), vehicle: saline) 103 % of control; (endpoint: mean survival time, dose: 50.0 mg/kg/injection, schedule: Q04DX002 (ip), vehicle: saline) 103 % of control; (endpoint: mean survival time, dose: 100.0 mg/kg/injection, schedule: Q04DX002 (ip), vehicle: saline) 100 % of control.
